Data as given in ChEMBL document CHEMBL5154810, “Development of Potent Immune Modulators Targeting Stimulator of Interferon Genes Receptor” (J Med Chem, 2022).
The source made the active and inactive calls. No cut-off for these calls is given here.

What was measured:
[1] = molecular target: Voltage-gated inwardly rectifying potassium channel KCNH2 (Homo sapiens, UniProt Q12809); experiment: Inhibition of hERG by patch clamp assay; assay type: toxicity
[2] = molecular target: T1, Stimulator of interferon genes protein (Homo sapiens, UniProt Q86WV6); experiment: Activation of STING pathway in human THP1-cells assessed as increase in STAT1 phosphorylation at 2 nM incubated for 6 hrs by Western blotting analysis; assay type: cell-based; details: THP-1, filed as activator
[3] = Stability in mouse liver microsome assessed as parent compound remaining at 1 uM measured after 30 mins in the presence of NADPH by HPLC-MS/MS analysis; assay type: ADME; details: liver microsomes, read-out: Stability
THP-1 [4] = experiment: Upregulation of OAS1 in human THP-1 cells at 100 nM measured after 6 to 18 hrs by RT-PCR analysis; assay type: functional, cell-based; details: time 6-18 hrs
[5] = molecular target: Nuclear factor NF-kappa-B complex (Homo sapiens) (UniProt Q00653+P19838+Q04206); experiment: Activation of NF-kappaB mediated pro-inflammatory effector proteins in human THP-1 cells at 2 to 10 nM incubated for 4 hrs by western blot analysis; assay type: cell-based; details: filed as activator, dose 2-10 nM
[6] = AUClast in BALB/c mouse at 3 mg/kg, iv by LC-MS/MS analysis; assay type: ADME, organism-based; parameters: time 0 - last, dose 3 mg/kg, route iv; details: in vivo
[7] = molecular target: T1, Stimulator of interferon genes protein; experiment: Binding affinity to STING in human THP-1 cells assessed as thermal stabilization at 48 to 55 degC at 100 nM incubated for 4 hrs by western blotting based CETSA assay; assay type: cell-based; details: filed as activator
[8] = molecular target: T1, Stimulator of interferon genes protein; experiment: Activation of STING mediated immune response in human THP-1 cells assessed as induction of IP-10 secretion measured after 24 hrs by ELISA; assay type: cell-based; details: filed as activator, dose 0.41-100 nM, DDE = dose-dependent effect
[9] = Clearance in BALB/c mouse at 3 mg/kg, iv by LC-MS/MS analysis; assay type: ADME, organism-based; details: in vivo, iv, 3 mg/kg
RAW264.7 = experiment: Activation of NF-kappaB mediated pro-inflammatory effector proteins in mouse RAW264.7 cells at 100 to 500 nM for incubated for 3 hrs by western blot analysis; assay type: cell-based; details: filed as activator, dose 100-500 nM
[10] = Terminal half life in BALB/c mouse at 3 mg/kg, iv by LC-MS/MS analysis; assay type: ADME, organism-based; details: in vivo, read-out: beta t1/2 (converted)
CT26 = experiment: Antitumor immunity activity against mouse CT26 cells xenografted in BALB/c mouse model assessed as tumor growth inhibition at 1.5 mg/kg, iv measured after 8 days; assay type: functional, organism-based; details: time 8.0 day
THP-1 [11] = experiment: […] of IFNB in human THP-1 cells at 100 nM measured after 18 hrs by RT-PCR analysis; assay type: functional, cell-based
[12] = Activation of IRF-mediated immune response in human THP1-Dual KO-STING cells co-expressing ISRE reporter assessed as normalized luciferase gene expression by measuring relative luciferase units at 50 uM incubated for 24 hrs by QUANTI Luc based microplate reader method; assay type: functional
[13] = Solubility of the compound in DMSO at 50 to 100 uM incubated for 72 hrs; assay type: physicochemical; details: dose 50-100 µM
[14] = molecular target: T1, Stimulator of interferon genes protein; experiment: Activation of STING mediated immune response in human THP-1 cells assessed as induction of IFNbeta secretion measured after 24 hrs by ELISA; assay type: cell-based
[15] = Stability in mouse plasma assessed as parent compound remaining at 5 uM measured after 4 hrs by HPLC-MS/MS analysis; assay type: ADME, cell-free; details: read-out: Stability
THP-1 [16] = experiment: Upregulation of CXCL10 in human THP-1 cells at 100 nM measured after 6 to 18 hrs by RT-PCR analysis; assay type: functional, cell-based; details: time 6-18 hrs
THP-1 [17] = experiment: Upregulation of ISG15 in human THP-1 cells at 100 nM measured after 6 to 18 hrs by RT-PCR analysis; assay type: functional, cell-based; details: time 6-18 hrs
Mus musculus = experiment: Upregulation of IL-6 in BALB/c mouse serum at 1.5 mg/kg, iv measured after 4 hrs by ELISA; assay type: functional, organism-based
[18] = molecular target: T1, Stimulator of interferon genes protein; experiment: Activation of STING pathway in human THP-1 cells assessed as increase in TBK1 phosphorylation at 2 nM incubated for 6 hrs by Western blotting analysis; assay type: cell-based; details: filed as activator
THP-1 [19] = experiment: Upregulation of IFITM1 in human THP-1 cells at 100 nM measured after 6 to 18 hrs by RT-PCR analysis; assay type: functional, cell-based; details: time 6-18 hrs
Cytochrome P450 2C19 = Cytochrome P450 2C19 (Homo sapiens, UniProt P33261); experiment: Inhibition of CYP2C19 in human liver microsomes using S-mephenytoin as cocktail probe substrate preincubated for 5 mins followed by NADPH addition and measured after 30 mins by HPLC-MS/MS analysis; assay type: ADME, Microsome
[20] = AUCinfinity in BALB/c mouse at 3 mg/kg, iv by LC-MS/MS analysis; assay type: ADME, organism-based; parameters: time infinity, dose 3 mg/kg, route iv; details: in vivo
[21] = molecular target: T1, Stimulator of interferon genes protein; experiment: Activation of STING pathway in human THP1-cells assessed as increase in STING phosphorylation at 2 nM incubated for 6 hrs by Western blotting analysis; assay type: cell-based; details: THP-1, filed as activator

T1 sequence (Q86WV6 whole entry): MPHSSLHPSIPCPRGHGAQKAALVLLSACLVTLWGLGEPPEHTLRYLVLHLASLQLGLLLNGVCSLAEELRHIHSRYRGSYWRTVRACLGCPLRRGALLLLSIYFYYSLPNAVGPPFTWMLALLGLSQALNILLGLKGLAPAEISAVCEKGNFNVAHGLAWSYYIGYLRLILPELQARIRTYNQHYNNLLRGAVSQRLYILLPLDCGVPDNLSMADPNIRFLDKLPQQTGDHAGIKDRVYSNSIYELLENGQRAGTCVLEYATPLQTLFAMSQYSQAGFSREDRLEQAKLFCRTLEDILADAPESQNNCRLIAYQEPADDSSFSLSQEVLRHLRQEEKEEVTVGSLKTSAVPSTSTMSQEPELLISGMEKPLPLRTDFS
Sequence of Nuclear factor NF-kappa-B complex (Homo sapiens) (P19838 whole entry, looked up): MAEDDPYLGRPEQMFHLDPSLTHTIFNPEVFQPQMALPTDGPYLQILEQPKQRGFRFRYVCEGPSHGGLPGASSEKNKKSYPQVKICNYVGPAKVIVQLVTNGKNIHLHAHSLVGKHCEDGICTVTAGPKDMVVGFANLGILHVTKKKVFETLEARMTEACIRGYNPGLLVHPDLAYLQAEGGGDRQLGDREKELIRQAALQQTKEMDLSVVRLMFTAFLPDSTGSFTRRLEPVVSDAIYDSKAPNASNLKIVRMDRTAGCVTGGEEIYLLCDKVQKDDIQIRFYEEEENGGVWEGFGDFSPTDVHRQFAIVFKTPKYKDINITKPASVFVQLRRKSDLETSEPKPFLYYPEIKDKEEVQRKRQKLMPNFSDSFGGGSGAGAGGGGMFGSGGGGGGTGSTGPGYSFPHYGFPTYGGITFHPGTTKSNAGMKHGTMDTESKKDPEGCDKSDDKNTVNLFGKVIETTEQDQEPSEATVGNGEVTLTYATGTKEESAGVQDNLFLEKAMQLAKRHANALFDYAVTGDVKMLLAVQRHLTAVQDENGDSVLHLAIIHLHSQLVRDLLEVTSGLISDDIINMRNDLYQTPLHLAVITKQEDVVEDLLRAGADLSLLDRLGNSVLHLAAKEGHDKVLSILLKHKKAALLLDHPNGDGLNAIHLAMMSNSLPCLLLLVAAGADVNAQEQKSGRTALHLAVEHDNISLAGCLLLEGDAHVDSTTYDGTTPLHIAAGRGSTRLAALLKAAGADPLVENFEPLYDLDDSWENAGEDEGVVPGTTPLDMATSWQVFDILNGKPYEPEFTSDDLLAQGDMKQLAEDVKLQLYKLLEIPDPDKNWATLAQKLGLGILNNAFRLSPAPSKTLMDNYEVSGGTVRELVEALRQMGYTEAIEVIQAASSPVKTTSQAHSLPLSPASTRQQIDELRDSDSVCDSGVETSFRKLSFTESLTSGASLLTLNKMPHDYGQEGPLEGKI
Sequence of Nuclear factor NF-kappa-B complex (Homo sapiens) (Q00653 whole entry, looked up): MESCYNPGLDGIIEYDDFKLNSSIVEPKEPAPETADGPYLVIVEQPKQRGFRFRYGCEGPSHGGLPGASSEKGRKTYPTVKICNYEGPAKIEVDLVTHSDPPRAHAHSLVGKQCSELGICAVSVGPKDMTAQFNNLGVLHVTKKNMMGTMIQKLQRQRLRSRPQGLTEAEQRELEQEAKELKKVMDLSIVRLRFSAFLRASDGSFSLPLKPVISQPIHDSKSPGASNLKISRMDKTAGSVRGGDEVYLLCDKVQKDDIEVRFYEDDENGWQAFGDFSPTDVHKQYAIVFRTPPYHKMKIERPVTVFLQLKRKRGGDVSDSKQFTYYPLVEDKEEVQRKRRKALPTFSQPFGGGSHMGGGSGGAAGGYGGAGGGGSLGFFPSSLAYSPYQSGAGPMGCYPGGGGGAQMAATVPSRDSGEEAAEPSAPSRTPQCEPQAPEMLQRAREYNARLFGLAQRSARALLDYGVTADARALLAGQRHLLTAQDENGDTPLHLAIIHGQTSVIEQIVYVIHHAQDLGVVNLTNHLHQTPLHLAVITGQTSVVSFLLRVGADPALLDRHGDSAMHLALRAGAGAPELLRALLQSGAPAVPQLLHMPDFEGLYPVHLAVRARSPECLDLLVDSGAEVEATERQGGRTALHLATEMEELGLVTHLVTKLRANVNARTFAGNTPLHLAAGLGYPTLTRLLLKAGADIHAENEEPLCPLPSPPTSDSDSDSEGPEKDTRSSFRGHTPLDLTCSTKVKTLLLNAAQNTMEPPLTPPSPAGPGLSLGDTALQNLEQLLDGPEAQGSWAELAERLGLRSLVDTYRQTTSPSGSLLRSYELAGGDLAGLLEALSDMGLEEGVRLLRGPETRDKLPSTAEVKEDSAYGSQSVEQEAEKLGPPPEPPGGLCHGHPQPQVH
Sequence of Nuclear factor NF-kappa-B complex (Homo sapiens) (Q04206 whole entry, looked up): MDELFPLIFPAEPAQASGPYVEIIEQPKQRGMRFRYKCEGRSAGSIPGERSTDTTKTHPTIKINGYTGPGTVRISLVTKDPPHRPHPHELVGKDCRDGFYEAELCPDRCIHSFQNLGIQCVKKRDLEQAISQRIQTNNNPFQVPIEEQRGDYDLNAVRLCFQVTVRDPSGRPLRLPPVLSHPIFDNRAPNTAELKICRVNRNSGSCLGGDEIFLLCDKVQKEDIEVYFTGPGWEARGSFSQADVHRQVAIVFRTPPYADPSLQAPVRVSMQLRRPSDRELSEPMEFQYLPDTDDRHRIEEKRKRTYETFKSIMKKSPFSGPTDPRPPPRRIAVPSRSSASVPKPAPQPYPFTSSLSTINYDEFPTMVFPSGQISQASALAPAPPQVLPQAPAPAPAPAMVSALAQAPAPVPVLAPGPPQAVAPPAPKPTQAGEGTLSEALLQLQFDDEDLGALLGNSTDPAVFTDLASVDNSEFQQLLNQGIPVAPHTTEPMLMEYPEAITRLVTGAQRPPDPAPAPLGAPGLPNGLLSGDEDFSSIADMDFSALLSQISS
Sequence of Cytochrome P450 2C19 (P33261 whole entry): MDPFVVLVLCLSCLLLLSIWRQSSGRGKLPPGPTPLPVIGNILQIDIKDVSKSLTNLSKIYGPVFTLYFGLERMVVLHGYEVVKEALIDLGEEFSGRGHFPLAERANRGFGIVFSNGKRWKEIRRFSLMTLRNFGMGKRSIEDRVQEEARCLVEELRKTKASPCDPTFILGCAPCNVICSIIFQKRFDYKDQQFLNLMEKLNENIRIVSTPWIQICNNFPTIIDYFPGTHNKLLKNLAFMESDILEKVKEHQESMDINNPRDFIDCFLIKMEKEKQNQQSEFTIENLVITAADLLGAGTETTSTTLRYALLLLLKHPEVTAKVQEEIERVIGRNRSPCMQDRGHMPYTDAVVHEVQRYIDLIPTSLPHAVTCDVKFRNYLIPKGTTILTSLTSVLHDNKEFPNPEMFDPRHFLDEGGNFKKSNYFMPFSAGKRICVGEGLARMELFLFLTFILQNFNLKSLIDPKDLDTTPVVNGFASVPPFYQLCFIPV
Sequence of Voltage-gated inwardly rectifying potassium channel KCNH2 (Q12809 whole entry): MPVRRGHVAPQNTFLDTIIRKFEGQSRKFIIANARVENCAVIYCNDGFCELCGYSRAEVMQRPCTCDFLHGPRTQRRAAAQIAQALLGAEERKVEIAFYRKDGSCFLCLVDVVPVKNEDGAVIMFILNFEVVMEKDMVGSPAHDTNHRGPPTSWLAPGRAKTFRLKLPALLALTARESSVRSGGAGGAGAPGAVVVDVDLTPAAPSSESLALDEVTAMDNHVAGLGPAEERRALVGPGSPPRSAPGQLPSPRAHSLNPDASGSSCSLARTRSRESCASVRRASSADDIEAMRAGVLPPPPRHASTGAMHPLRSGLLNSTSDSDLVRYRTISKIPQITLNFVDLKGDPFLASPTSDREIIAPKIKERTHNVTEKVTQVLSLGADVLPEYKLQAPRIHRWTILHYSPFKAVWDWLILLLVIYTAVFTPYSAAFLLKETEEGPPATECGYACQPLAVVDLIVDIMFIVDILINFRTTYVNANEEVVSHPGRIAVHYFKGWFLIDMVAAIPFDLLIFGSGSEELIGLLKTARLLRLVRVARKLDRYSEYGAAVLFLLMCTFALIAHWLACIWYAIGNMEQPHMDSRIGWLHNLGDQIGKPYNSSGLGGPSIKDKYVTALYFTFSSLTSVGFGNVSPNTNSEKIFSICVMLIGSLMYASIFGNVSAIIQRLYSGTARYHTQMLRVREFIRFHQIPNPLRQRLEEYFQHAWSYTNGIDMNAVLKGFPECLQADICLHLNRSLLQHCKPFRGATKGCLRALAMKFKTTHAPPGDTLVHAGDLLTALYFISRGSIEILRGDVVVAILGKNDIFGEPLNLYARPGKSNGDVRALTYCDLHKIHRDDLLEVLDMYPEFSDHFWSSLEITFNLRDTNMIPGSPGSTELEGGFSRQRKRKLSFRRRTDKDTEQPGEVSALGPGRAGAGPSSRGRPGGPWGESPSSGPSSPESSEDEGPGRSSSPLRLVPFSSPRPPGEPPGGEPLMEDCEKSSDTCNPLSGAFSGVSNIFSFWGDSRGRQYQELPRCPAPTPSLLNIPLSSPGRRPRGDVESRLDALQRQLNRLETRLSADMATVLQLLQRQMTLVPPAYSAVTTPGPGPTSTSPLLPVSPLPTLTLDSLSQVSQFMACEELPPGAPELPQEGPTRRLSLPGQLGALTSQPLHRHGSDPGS

Activity [2]: Active
remaining at 0.5 h, 1 µM [3]: 38.7%
Activity [5]: Active
AUC(0-t) [6]: 4200 ng·h/mL
Activity [7]: Active
Activity [8]: Dde
CL [9]: 35.3 mL/min/kg
half-life [10]: 10.5 h
solubility [13]: Soluble
EC50 [14]: 0.002 µM
Activity ([14]; filed as activator, dose 0.12-2000 nM, DDE = dose-dependent effect): Dde
remaining at 4 h, 5 µM [15]: > 99%
Activity [18]: Active
IC50 (Cytochrome P450 2C19): > 100 µM
AUC [20]: 4780 ng·h/mL
Activity [21]: Active
Structure (SMILES): CCn1nc(C)cc1C(=O)Nc1nc2cc(C(N)=O)cc(OC)c2n1C/C=C/Cn1c(NC(=O)c2cc(C)nn2CC)nc2cc(C(N)=O)cc(OCCCNC(=O)OC(C)(C)C)c21
IC50 [1]: > 50 µM
Activity (THP-1 [4]): Active
Activity (RAW264.7): Active
Activity (CT26): Active
Activity (THP-1 [11]): Active
RLU [12]: 1.1
Activity (THP-1 [16]): Active
Activity (THP-1 [17]): Active
Activity (Mus musculus): Active
Activity (THP-1 [19]): Active
